The values that follow come from US20260183295A1, “METHODS AND COMPOSITIONS FOR TREATING CANCER” (Onconova Therapeutics, Inc., priority 2022, published 2026).

What all share (assay type): cell-based
Data set [1] concerns Hs578T spheroids. Briefly: CellTiter Glo 3D spheroid viability. To be noted: 48 hours; Compound 1, Comparator 1, Comparator 2 5 μM; Comparator 4 10 μM. On the procedure:
Viability of the spheroids was assessed using CellTiter Glo 3D.
For orientation: Cellular ATP, detected with luciferase, serves as a proxy for viable cell number.

The test system of data set [2] is Caspase 3/7. Briefly: Caspase 3/7 Glo assay with or without bafilomycin A1, MDA-MB-231 cells, 2 days. Particulars: 5 μM. An excerpt: FIGS. 34 and 35 show Caspase 3/7 activity as measured by the Caspase 3/7 Glo assay. […] The effect was enhanced by co-treatment with bafilomycin A1 cotreatment.
Data set [3] has as its system HCC-1937. Briefly: Cell viability after 72 hours treatment. Particulars: HCC-1937 (TNBC). Here is the method: (§1) The effects on the different treatment conditions on BUB 1 levels and PARP cleavage were also assessed. For both MNA-MB-231 cells, Compound 1 alone or with HCQ or SBI decreased BUB1 levels and cleaved PARP with […] decreases in cell viability observed for all treatments except Compound 1+SBI in MMA-MB-231 cells. The effects of Compound 1 with or without autophagy inhibitors was less pronounced in HCC-1937 cells.

Data set [4] concerns MDA-MB-468. Nature of the data set: Cell viability after 72 hours treatment. Particulars: MDA-MB-468 (TNBC). On the procedure:
as §1

For data set [5], the system named is Caspase 3/7. Briefly: Caspase 3/7 Glo assay, MDA-MB-231 cells, 24 hours. On the procedure:
To determine how Compound 1 induces cell death, Caspase 3/7 activity was measured using the Caspase 3/7 Glo assay.
The effect of zVAD-FMK treatment on Caspase 3/7 activity was assessed.

Data set [6] deals with MDA-MB-231 cells. Briefly: Annexin V/PI staining followed by FACS, 24 hours. Particulars: for cell death (Annexin V/PI): Compound 1, Comparator 1, 2 5 μM, Comparator 4 10 μM; for effect of zVAD-FMK on cell death, Annexin V/PI staining: zVAD-FMK 20 μM (FIG. 24). Here is the method:
To determine the effect of the different treatment conditions on cell death, Annexin V/PI staining was performed.
For orientation: A flow cytometer gives signals particle by particle.

The subject of data set [7] is MDA-MB-231 cells. Nature of the data set: MTT assay, 24 hours. Particulars: zVAD-FMK 20 μM (FIG. 25).
Data set [8] relates to T-47D, HCC-1937, HS-578T, BT-474, MDA-MB-468, and MD-MB-453 cell lines. Briefly: MTT cell viability of breast cancer cell line panel versus comparators, 48 hrs (FIG. 17). Particulars: Comparator 4 10 μM, Comparator 1 and 2 5 μM, Compound 1 2.5, 5.0, 10 μM.
Setting [9] is: Compound 1, Comparator 1, 2 5 μM, Comparator 4 10 μM (FIG. 22).
Setting [10] is: without zVAD-FMK, relative to DMSO (FIG. 26).

Each structure is given as a SMILES string.

`CC(=O)c1c(C)c2cnc(Nc3ccc(N4CCNCC4)cn3)nc2n(C2CCCC2)c1=O` [Comparator 1, palbociclib]: in data set [1], the “decrease in organoid viability compared to DMSO” value (“decrease in organoid viability” below) is “no effect”. Moreover, the “Caspase 3/7 activity, compound alone” value in data set [2] is listed as “no effect”. Further, the “72 h-cell viability decrease” value was 15% in data set [3] and 10% in data set [4]. The “Caspase 3/7 activity” value in data set [5] (setting [9]) is listed as “no effect”.
`CN(C)C(=O)c1cc2cnc(Nc3ccc(N4CCNCC4)cn3)nc2n1C1CCCC1` [Comparator 2, ribociclib]: the “decrease in organoid viability” value in data set [1] is “no effect”. Also, in data set [6], the “cell death (Annexin V/PI)” value is on record as “neither Comparator 1 nor Comparator 2 treatment induced cell death” and the “effect of zVAD-FMK on cell death, Annexin V/PI staining” value is “similarly unaffected”. In data set [5] (setting [9]), the “Caspase 3/7 activity” value is “no effect”. For the same compound, the “Caspase 3/7 activity” value in data set [5] (setting [10]) is “not increased”. In addition, the “effect of zVAD-FMK on cell death, MTT assay” value in data set [7] is reported as “similarly unaffected”.
For `CCN1CCN(Cc2ccc(Nc3ncc(F)c(-c4cc(F)c5nc(C)n(C(C)C)c5c4)n3)nc2)CC1` [Comparator 3, abemaciclib], the “72 h-cell viability decrease” value in data set [3] came out at 10%; in data set [4], 50%.
`CC(C)C[C@H](NC(=O)[C@H](Cc1ccccc1)NC(=O)c1cnccn1)B(O)O` [Comparator 4, bortezomib]: the “decrease in organoid viability” value in data set [1] is given as “significant cell death”. In addition, in data set [6], the “cell death (Annexin V/PI)” value is around 55%. Besides, the “effect of zVAD-FMK on cell death, Annexin V/PI staining” value in data set [6] is listed as “partially blocked”. In addition, the “Caspase 3/7 activity” value is reported as “greatest increase” in data set [5] (setting [9]) and “large increase” in data set [5] (setting [10]). In data set [5] (zVAD-FMK 20 μM (FIG. 26)), the “effect of zVAD-FMK on induced Caspase 3/7 activity” value was “completely inhibited”. Moreover, in data set [7], the “effect of zVAD-FMK on cell death, MTT assay” value is reported as “partially blocked”. Moreover, the “cell death (MTT), comparison of treatments” value in data set [8] is “induced cell death to the greatest extent”.
